The structures appear in SMILES notation.

Experimental findings from patent US20090042993A1, “IDENTIFICATION OF NOVEL POST-TRANSLATIONAL PROTEIN MODIFICATIONS” (priority 2007, published 2009) are described below.

Assay [1] deals with T1, ER membrane acetyl-CoA transport activity (Cricetulus griseus, UniProt G3H231).
T1 sequence (G3H231 1-550): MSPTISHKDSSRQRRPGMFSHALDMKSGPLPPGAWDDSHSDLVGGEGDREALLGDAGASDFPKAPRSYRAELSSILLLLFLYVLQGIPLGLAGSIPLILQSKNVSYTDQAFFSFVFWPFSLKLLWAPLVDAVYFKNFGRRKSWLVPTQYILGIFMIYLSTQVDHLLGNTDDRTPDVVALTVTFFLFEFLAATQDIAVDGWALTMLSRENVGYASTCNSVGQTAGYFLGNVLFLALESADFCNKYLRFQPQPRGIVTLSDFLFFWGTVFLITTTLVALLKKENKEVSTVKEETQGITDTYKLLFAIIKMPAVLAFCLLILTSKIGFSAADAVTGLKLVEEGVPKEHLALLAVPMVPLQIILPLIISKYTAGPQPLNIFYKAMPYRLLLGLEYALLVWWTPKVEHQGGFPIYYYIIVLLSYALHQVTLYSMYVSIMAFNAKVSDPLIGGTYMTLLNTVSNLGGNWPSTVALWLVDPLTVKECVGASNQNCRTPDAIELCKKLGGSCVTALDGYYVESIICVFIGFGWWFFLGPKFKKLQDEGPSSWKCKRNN
Description: Acetyl-CoA transport assay into intact ER vesicles. The class given is biochemical, Chinese Hamster.
Description: Intact vesicles from the endoplasmic reticulum (ER) and the Golgi apparatus were purified on a 10-34% Iodixanol (OptiPrep; Axis-Shield, Norway) continuous gradient as described (Puglielli et al., 2001, Nat. Cell Biol. 3: 905-912). […] Fractions enriched in ER and Golgi markers (also called ER or Golgi vesicles herein) were separated, pooled together, and resuspended in isotonic/cryogenic buffer (0.25 M sucrose and 10 mM Tris-HCl, pH 7.4) in the presence of protease inhibitors (Roche). Latency of ER and Golgi vesicles was determined with the glucose-6-phosphatase (Clairmont et al., 1992, J. Biol. Chem. 267: 3983-3900) and the sialyl-transferase (Puglielli and Hirschberg, 1999, J. Biol. Chem. 274: 35596-35600) methods, respectively. The purity of the preparation was further confirmed by assaying the above enzymatic activities, together with transport of CMP-sialic acid.
Briefly, assays were performed in 100 μl final volume (isotonic/cryogenic buffer) using 25 to 50 μg of ER/Golgi vesicles protein. […] After 5 min at 30° C., reactions were stopped by lowering the temperature to 0-4° C. and by adding 100 μl of ice-cold isotonic/cryogenic buffer (described above). […] Pellets were then dissolved in 0.6 mL of NaOH 1 N; after neutralization with 0.2 mL of 4N HCl, samples were counted by scintillation spectrometry. […]
Asterisk (*) indicates statistical significance (n=3) (P<0.0005). FIG. 5(D): transport of CMP-sialic acid into ER and Golgi intact vesicles was measured as described in (A). […] FIG. 5(E): transport of ATP into ER intact vesicles obtained from control and ceramide-treated CHO cells was measured as described in FIG. 5(A). […]
Translocation was measured as described in the Materials and Methods section. […] FIG. 10(E): transport of ATP into ER intact vesicles obtained from control and ceramide-treated CHO cells was measured as described in FIG. 10(A). […]
Results are expressed as percent of control (no CoA; white bar) and are the average±S.D. Asterisk (*) indicates statistical significance. […]

The test system of the next assay is BACE1. The assay is described as follows: BACE1 steady-state levels by Western blot in stably transfected CHO cells. The class given is cell-based, human. Here is the method: Chinese Hamster Ovary (CHO) cells were grown in DMEM (Gibco BRL—Invitrogen, Carlsbad, Calif.) supplemented with 10% fetal bovine serum (FBS) and penicillin/streptomycin (Mediatech, Inc., Herndon, Va.) as described before (Puglielli et al., 2001, Nat. Cell Biol. 3: 905-912; Puglielli et al., 2003, J. Biol. Chem. 278: 19777-19783; Costantini et al., 2005, Biochem. J. 391: 59-67; Costantini et al., 2006, EMBO J. 25: 1997-2006). Cells were maintained in a humidified atmosphere with 5% CO2. For ceramide treatment, C6-ceramide (also simply called ceramide herein) was administered at the final concentration of 10 μM; treatment was started when cells were ˜30% confluent and carried out for 4 days, unless specified otherwise. Treatment with proteasome inhibitors MG-132 (5 μM) and lactacystin (10 μM) was done for 10 hours, as described earlier (Qing et al., 2004, FASEB J. 18: 1571-1573).
Cell lysates were prepared in GTIP buffer (100 mM Tris-pH 7.6, 20 mM EDTA, 1.5 M NaCl) with 1% Triton X-100 (Roche, Basel, Switzerland), 0.25% NP40 (Roche), and a protease inhibitor cocktail (Roche) as described before (Puglielli et al., 2003, J. Biol. Chem. 278: 19777-19783; Costantini et al., 2005, Biochem. J. 391: 59-67). Briefly, cell monolayers were washed twice in PBS, scraped, transferred into eppendorf tubes, and centrifuged at 8,000 rpm for 5 min in a table-top centrifuge. Cell pellets were then lysed in ice for 30 min with the buffer indicated above, and centrifuged again at 14,000 rpm prior to the recollection of the protein extracts. Proteins were quantitated with the BCA Protein Assay (Pierce, Rockford, Ill.) following the manufacturer's instructions.
For the immunoprecipitation of BACE1, cell lysates were pre-cleared with BioMag Protein A (Polysciences, Inc., Warrington, Pa.); beads were used at the concentration of 15 μl of the slurry per sample and separated with a magnetic holder. BACE1 was then immunoprecipitated with anti-BACE1 antibodies overnight and recovered with BioMag Protein A as above. The immunoprecipitate-bead complexes were washed 3 times in PBS and boiled for 10 min in SDS sample buffer (Invitrogen) with β-mercaptoethanol. Beads were then separated and the samples were analyzed by reducing SDS-PAGE.
Western blotting was performed on 10% Bis-Tris, 4-12% Bis-Tris, or 7% Tris-Acetate SDS-PAGE systems (NuPAGE; Invitrogen) as described (Puglielli et al., 2001, Nat. Cell Biol. 3: 905-912; Puglielli et al., 2003, J. Biol. Chem. 278: 19777-19783; Costantini et al., 2005, Biochem. J. 391: 59-67; Costantini et al., 2006, EMBO J. 25: 1997-2006). The following antibodies were used: anti-BACE1 N-terminal (monoclonal antibody; R&D Systems, Minneapolis, Minn.); anti-BACE1 C-terminal (polyclonal antibody; Abcam, Cambridge, Mass.); anti-pro-BACE1 (polyclonal; Abcam); anti-acetylated lysine (monoclonal; Abcam); anti-calreticulin (ER marker, polyclonal; Abcam); anti-58 K Golgi/formiminotransferase cyclodeaminase (Golgi marker, polyclonal; Abcam); anti-syntaxin (Golgi marker, monoclonal; Abcam); anti-EEA1 (endosomes, monoclonal; BD Transduction Laboratories, Lexington, Ky.); anti-actin (polyclonal; Cell Signaling, Danvers, Mass.). Secondary antibodies (Amersham) were used at a 1:6000 dilution. Binding was detected by chemiluminescence (LumiGLO kit; KPL, Gaithersburg, Md.). Only a representative blot of at least three different experiments is shown throughout the paper.
FIG. 1 illustrates how BACE1 is transiently acetylated in the lumen of the ER. For this experiment, CHO cells expressing human BACE1 were treated with C6-ceramide (also simply called ceramide herein) for different periods of time. BACE1 was then immunoprecipitated and analyzed by Western blotting. FIG. 1(A): CHO cells stably expressing BACE1 were treated with ceramide for the indicated time. BACE1 was immunoprecipitated from total cell lysates, separated on a 7% Tris-Acetate NuPAGE system, and then analyzed by Western blot using either anti-BACE1 or anti-acetylated lysine antibodies. […]
(A western blot detects proteins with antibodies after separation by electrophoresis.)

On to `CCCCCCCCCCCCC/C=C/[C@@H](O)[C@H](CO)NC(=O)CCCCC` [ceramide, C6-ceramide], for which the “increase in the Vmax of acetyl-CoA transport” value in assay [1] (ER vesicles from ceramide treated cells vs untreated) is ~30%. In addition, in assay [1] (ER vesicles from ceramide treated cells, Lineweaver-Burk), the “Km of acetyl-CoA transport” value is “comparable to untreated cells”. In addition, in the assay on BACE1 (CHO cells expressing human BACE1, ceramide 10 μM, apparent plateau at day 4), the “steady-state levels of immature and mature BACE1” value is “progressive increase in the steady-state levels”. Also, the “steady-state levels of BACE1Ala” value in the assay on BACE1 (CHO cells stably expressing BACE1Ala grown with ceramide) is reported as “not affected”.
